Source: US20260327211A1, “MODULATORS OF A POTASSIUM CHANNEL AND OF TRPV1 CHANNEL AND USES THEREOF” (Bsense Bio Therapeutics Ltd., priority 2023, published 2026)
In brackets after ≈: the same amount, converted by molar mass. Where two headings read alike, the source gives them in different places.

Experiments:
[1] = Human liver microsome metabolic stability; assay type: in vitro ADME; details: for half-life at 1 µM: human, liver microsomes, read-out: HLM T1/2; for microsomal CLint at 1 µM: read-out: HLM Clint
How it was run: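 Compound at 1 μM was incubated at 37 °C with pooled liver microsomes at 0.5 mg/mL and an NADPH regenerating system (about 1.0 mM). Samples were taken from 0 to 60 min, quenched in cold acetonitrile and quantified by LC-MS/MS against an internal standard. CLint was scaled with species liver weights (rat 40 g/kg, human 20 g/kg).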

hTRPV1 = molecular target: T1, hTRPV1 (Homo sapiens, UniProt Q8NER1); experiment: TRPV1 HCS, Fluo-8 calcium flux, capsaicin activation, CHO cells expressing hTRPV1; assay type: cell-based
T1 construct: CDS of NM_080704.4, inserted into the multiple cloning site of pcDNA3.1(+); host or cells: CHO/hKv7.2/3
T1 sequence (Q8NER1 whole entry): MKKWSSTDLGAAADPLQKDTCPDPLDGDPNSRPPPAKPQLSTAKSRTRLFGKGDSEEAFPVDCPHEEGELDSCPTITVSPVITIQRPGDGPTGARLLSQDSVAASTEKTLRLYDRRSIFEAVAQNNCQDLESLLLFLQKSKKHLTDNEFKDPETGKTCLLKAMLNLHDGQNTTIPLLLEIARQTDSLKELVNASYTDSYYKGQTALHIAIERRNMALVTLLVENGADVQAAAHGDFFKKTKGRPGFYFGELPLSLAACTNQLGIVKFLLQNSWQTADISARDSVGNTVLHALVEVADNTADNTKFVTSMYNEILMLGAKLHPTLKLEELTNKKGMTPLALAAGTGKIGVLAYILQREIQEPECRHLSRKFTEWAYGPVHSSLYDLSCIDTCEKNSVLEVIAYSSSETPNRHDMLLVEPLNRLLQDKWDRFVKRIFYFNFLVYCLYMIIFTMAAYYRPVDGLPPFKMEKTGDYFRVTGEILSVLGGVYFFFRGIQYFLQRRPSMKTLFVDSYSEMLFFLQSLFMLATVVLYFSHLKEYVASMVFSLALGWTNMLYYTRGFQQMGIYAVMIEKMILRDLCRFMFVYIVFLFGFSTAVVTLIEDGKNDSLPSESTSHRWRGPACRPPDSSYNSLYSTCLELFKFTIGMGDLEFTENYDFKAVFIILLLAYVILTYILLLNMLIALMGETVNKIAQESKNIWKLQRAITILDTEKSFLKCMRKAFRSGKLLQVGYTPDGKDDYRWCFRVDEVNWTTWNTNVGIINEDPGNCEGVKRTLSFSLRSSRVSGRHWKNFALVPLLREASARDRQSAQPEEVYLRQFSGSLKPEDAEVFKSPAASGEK
Experimental: Cell culture: Chinese hamster ovary (CHO) cell-line cells with constitutive expression of human hTRPV1 channels (B'SYS GmbH, Switzerland) were cultured in F-12 nutrient mixture (Biological Industries) supplemented with 10% fetal bovine serum (Biological Industries) and 1% penicillin-streptomycin (Biological Industries) in a humidified 5% CO2 incubator at 37° C. To maintain the stable expression of hTRPV1, antibiotic selection (G418 500 μg/ml) was applied.
High content screen (HCS) using Fluo-8 No Wash Calcium flux Assay Kit: Fluo-8 No Wash Calcium Assay Kit (Abcam, ab112129) was used with CHO stably or transiently expressing TRPV1 to screen compounds against the hTRPV1 ion channel target. The cells were pre-loaded with Fluo-8AM which is membrane permeable. The AM groups of the Fluo-8AM were then being cleaved by intracellular esterase, trapping the Fluo8 in the cell. […] The relative fluorescence signal was calculated following background subtraction, comparing the fluorescence at each time point to its maximal level measured following Ionomycin application in the end.
According to optimization process to achieve uniform and consistent screening condition of molecules the following protocol was established: Cells were seeded in 384-well, black-walled, clear-bottomed, at a density of 5,000 cells per well 24 h before the assay conductance and incubated overnight in their normal growth medium. On the experiment day the medium was replaced in each well with HBSS, HEPES, and compound/vehicle (0.2% DMSO). Dye solution (prepared according to the manufacturer) was added to the wells and plates are incubated for 1.5 h light-protected in room temperature. The Tecan Spark plate reader injectors were then primed with capsaicin and Ionomycin for channel activation and data normalization, respectively. […] To calculate IC50 values, the data was fitted to sigmoidal regression line using Prism GraphPad. The fitting was constrained to a minimum of 0 and a maximal response of about 1 unless a different maximal response could be identified.

hKv7.2/3 = molecular target: T2, hKv7.2/3 (Homo sapiens, UniProt O43525+O43526); experiment: Kv7.2/7.3 HCS, FLIPR potassium (thallium) assay, CHO/hKv7.2/3; assay type: cell-based
T2 construct: host or cells: CHO
T2 sequence (O43525 whole entry): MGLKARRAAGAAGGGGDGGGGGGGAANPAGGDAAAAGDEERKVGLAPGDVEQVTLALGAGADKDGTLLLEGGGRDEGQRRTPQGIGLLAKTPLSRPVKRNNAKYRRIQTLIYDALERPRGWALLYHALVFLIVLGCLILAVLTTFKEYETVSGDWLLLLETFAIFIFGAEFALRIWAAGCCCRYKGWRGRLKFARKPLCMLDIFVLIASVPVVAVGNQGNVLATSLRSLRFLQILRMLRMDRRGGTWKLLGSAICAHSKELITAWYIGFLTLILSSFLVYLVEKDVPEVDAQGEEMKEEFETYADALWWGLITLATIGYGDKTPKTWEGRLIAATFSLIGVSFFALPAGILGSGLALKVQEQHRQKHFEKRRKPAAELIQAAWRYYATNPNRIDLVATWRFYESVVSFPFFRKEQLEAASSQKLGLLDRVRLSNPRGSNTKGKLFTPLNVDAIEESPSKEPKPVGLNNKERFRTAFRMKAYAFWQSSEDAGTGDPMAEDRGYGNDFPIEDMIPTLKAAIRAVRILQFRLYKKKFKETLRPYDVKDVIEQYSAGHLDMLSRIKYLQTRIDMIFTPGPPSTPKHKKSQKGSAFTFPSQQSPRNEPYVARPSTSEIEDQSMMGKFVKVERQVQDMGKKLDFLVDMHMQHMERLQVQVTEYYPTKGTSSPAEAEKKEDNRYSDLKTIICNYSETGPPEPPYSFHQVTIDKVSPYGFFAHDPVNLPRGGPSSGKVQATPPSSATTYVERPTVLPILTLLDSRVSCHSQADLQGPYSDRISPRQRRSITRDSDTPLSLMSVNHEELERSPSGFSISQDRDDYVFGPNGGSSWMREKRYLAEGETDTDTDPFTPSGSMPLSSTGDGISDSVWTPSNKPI
T2 sequence (O43526 whole entry): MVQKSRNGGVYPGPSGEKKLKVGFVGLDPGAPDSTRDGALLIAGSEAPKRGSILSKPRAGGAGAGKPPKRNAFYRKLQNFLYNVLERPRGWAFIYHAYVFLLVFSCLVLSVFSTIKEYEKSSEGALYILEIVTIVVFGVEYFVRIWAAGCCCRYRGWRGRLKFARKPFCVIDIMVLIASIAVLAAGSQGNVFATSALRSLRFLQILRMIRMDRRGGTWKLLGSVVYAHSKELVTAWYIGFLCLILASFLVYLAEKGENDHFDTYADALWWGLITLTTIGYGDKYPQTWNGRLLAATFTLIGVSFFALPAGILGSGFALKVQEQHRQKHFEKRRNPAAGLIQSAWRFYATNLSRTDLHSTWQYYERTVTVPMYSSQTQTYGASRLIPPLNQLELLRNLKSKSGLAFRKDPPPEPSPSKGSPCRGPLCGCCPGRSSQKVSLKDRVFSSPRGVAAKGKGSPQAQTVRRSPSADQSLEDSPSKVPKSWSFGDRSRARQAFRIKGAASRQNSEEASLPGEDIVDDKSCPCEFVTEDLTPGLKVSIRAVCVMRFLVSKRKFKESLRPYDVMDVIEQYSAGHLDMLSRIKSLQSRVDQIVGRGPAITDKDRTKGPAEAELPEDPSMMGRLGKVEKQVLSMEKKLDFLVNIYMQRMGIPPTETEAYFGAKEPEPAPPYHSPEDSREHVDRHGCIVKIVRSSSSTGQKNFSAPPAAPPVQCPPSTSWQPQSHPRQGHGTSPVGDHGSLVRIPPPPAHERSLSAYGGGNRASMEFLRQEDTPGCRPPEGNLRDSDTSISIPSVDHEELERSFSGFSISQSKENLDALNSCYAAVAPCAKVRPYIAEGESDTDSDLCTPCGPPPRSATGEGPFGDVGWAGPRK
How it was run: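 CHO cells stably expressing human Kv7.2/3, loaded with Tl+ indicator dye 1.5 h at room temperature in HBSS/HEPES with compound (0.2% DMSO). Channels activated by injection of 1 mM Tl2SO4 plus 5 mM K2SO4; fluorescence increase reflects Tl+ influx. EC50 from sigmoidal fit constrained to minimum 1, maximum ~3.6.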

Kinetic solubility = assay type: physicochemical; details: for solubility kinetic: hhbs buffer, aqueous buffer
Experimental: Solubility measurements were performed prior to each in vitro assay to ensure accurate dose response and reproducibility. Briefly, each compound was dissolved to 60 mM in DMSO and calibration curve was performed from 1.5-200 μM using absorbance spectra analysis and determination of λmax. Calibration curve served as the readout for all following assays. The 60 mM stock solution was used to make a 120 μM target concentration of 0.2% DMSO in the appropriate buffer of the in vitro related assay (i.e. HHBS buffer). Solubilized compounds were vortex for 10 minutes followed by centrifugation for 15 minutes in 5000 RPM and the supernatant was recovered for absorbance spectra analysis between 200-400 nm.

[2] = cells expressing TRPV1, read-out: TRPV1 IC50
[3] = Table 1, read-out: Kv7.2/7.3 IC50
[4] = Table 1, read-out: Kinetic Sol.
[5] = Tables 4 and 11, read-out: Kinetic Sol.

SMILES	half-life at 1 µM ([1]; human liver microsomes)	IC50 (hTRPV1)	IC50 (hTRPV1; [2])	EC50 (hKv7.2/3; [3])	solubility kinetic (Kinetic solubility; [4])	solubility kinetic (Kinetic solubility; [5])	microsomal CLint at 1 µM ([1]; human liver microsomes)	EC50 (hKv7.2/3; read-out: Kv7.2/7.3 EC50)	HLM and/or Rat PK clearance rates compared to compound 661 [1]	other results
Cc1cn(-c2ccc(F)c(CC(=O)NCC(C)(C)O)c2)c2c(Cl)cc(Cl)cc12 [Compound 421]	25 min	1800 nM	–	–	–	3400 µM (≈ 1440 µg/mL)	–	–	–	EC50 (hKv7.2/3; read-out: hKv7.2/3 EC50 HCS): 824 nM; CLint scaled at 1 µM ([1]; human liver microsomes): 50 mL/min/kg
O=C(Cc1nccc(-n2cc(Cl)c3cc(Cl)cc(Cl)c32)n1)NC1COCC1O (centres unmarked) [Compound 760]	–	–	–	–	–	57000 µM (≈ 25200 µg/mL)	–	–	improved HLM and/or Rat PK clearance rates compared to compound 661	solubility kinetic (Kinetic solubility; read-out: Kinetic solubility): 57 µM (≈ 25.2 µg/mL)
CC(C)c1cc(Cl)cc(Cl)c1C(=O)c1ccc(F)c(CC(=O)NCC(C)(C)O)c1 [Compound 417-4]	–	–	8000 nM	13400 nM	66 µM (≈ 29.1 µg/mL)	–	91.8 µL/min/mg	–	–	–
COC[C@@H](CO)NC(=O)Cc1cc(Sc2c(Cl)cc(F)cc2C(C)C)ccc1F [Compound 415]	–	7800 nM	7700 nM	2200 nM	26.7 µM (≈ 11.9 µg/mL)	–	839 µL/min/mg	–	–	–
CC(C)c1cc(Cl)cc(Cl)c1Nc1ccc(F)c(CC(=O)NCC(C)(C)O)c1 [NH91, reference compound]	7.4 min	8000 nM	–	–	–	–	–	700 nM	–	solubility kinetic (Kinetic solubility; Kinetic Sol., Tables 4 and 11): 20 µM (≈ 8.55 µg/mL); solubility kinetic (Kinetic solubility; read-out: Kinetic solubility): 20 µM (≈ 8.55 µg/mL)

Now from value to compound, other results behind:

half-life at 1 µM ([1]; human liver microsomes)	IC50 (hTRPV1)	IC50 (hTRPV1; [2])	EC50 (hKv7.2/3; [3])	solubility kinetic (Kinetic solubility; [4])	solubility kinetic (Kinetic solubility; [5])	microsomal CLint at 1 µM ([1]; human liver microsomes)	EC50 (hKv7.2/3; read-out: Kv7.2/7.3 EC50)	SMILES	HLM and/or Rat PK clearance rates compared to compound 661 [1]	other results
> 145 min	–	–	–	–	–	–	–	O=C(Cc1cc(-n2cc(C(F)(F)F)c3cc(Cl)cc(Cl)c32)ncn1)NCCO [Compound 843]	improved HLM and/or Rat PK clearance rates compared to compound 661	–
19.2 min	19000 nM	19300 nM	1100 nM	40 µM (≈ 17.6 µg/mL)	37000 µM (≈ 16300 µg/mL)	72 µL/min/mg	–	O=C(Cc1cncc(-n2cc(Cl)c3cc(Cl)cc(Cl)c32)c1)N[C@@H]1COC[C@H]1O [Compound 661]	–	IC50 (hTRPV1; read-out: CAP hTRPV1 IC50 HCS): 19100 nM; Kv7.2/3 activation (words) (hKv7.2/3): partial yet potent facilitation of Kv7.2/3 activity; Emax (hKv7.2/3; read-out: Kv7.2/3 maximal opening vs. control): 21%; EC50 (hKv7.2/3; read-out: hKv7.2/3 EC50 HCS): 0.001 nM; CLint scaled at 1 µM ([1]; human liver microsomes): 64.8 mL/min/kg; HLM T1/2 ([1]; human liver microsomes, 1 µM): 19.3 min
–	–	1900 nM	540 nM	–	–	–	500 nM	O=C(Cc1cc(-n2cc(Cl)c3cc(Cl)cc(Cl)c32)ccc1F)NCCO [Compound 627]	–	IC50 (hTRPV1; read-out: CAP hTRPV1 IC50 HCS): 1900 nM; Kv7.2/3 activation (words) (hKv7.2/3): significant hKv7.2/3 activation even at picomolar concentrations; activation at 0.01 µM (hKv7.2/3; 10 nM range): ~30%
33.8 min	–	–	–	–	–	–	–	O=C(Cc1ccnc(-n2cc(Cl)c3cc(Cl)cc(Cl)c32)n1)N[C@@H]1COC[C@H]1O [Compound 820]	improved HLM and/or Rat PK clearance rates compared to compound 661	–
–	–	2100 nM	1100 nM	–	–	–	2100 nM	Cc1cn(-c2ccc(F)c(CC(=O)NCC(C)(C)O)c2)c2c(Cl)cc(Cl)cc12 [Compound 421-6]	–	Kinetic Sol. (Kinetic solubility; Table 1): 3.4; HLM Clint ([1]; human liver microsomes, 1 µM): 55.5 µL/min/mg
